The values below come from PubChem BioAssay (NCI).

Among the test systems are IGROV1 ovarian; NCI-H522 lung; HOP-92 NSCLC; NCI-H460 lung; RPMI-8226 leukemia; SW-620 colon; NCI-H226 lung; SN12C renal.
What all share (assay): DTP human tumour cell line panel, 48 h

Structures are written as SMILES.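 Interpolation was linear, between the two tested concentrations surrounding the appropriate level; five concentrations were tested over 48 hours in 96-well plates. At the TGI there is no net growth.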

Take `CC(=O)NNc1nc(C)c(C(=O)/C=C/c2ccc(Cl)cc2)s1`: the TGI in the experiment with IGROV1 ovarian, in the experiment on NCI-H522 lung, in the experiment on HOP-92 NSCLC, in the experiment on NCI-H460 lung, in the experiment with RPMI-8226 leukemia and with SW-620 colon was above 100 µM each time.

Take `C#CC1(O)CCC2[C@@H]3CCc4cc(Oc5nc(F)nc(-c6c7ccccc7c(SCC)n6CCC)n5)ccc4C3CC[C@@]21C` (some centres undefined): the TGI is above 100 µM in the experiment with IGROV1 ovarian; above 100 µM in the experiment with HOP-92 NSCLC; 50.1 µM in the experiment on NCI-H226 lung; above 100 µM in the experiment on NCI-H460 lung; above 100 µM in the experiment with RPMI-8226 leukemia; above 100 µM in the experiment with SW-620 colon.

As to `COc1cc2c(cc1OC)C1Cc3ccc(OC)c(OC)c3C[N+]1([O-])CC2` (centres undefined), the TGI in the experiment with NCI-H522 lung, in the experiment on NCI-H460 lung, in the experiment with RPMI-8226 leukemia, with SW-620 colon and in the experiment on SN12C renal was above 100 µM each time.

For the compound `O=S(=O)(N=NC=C1c2ccccc2N(O)c2ccccc21)c1ccc(Cl)cc1`, the TGI in the experiment on IGROV1 ovarian, with NCI-H522 lung, in the experiment with HOP-92 NSCLC, in the experiment with NCI-H226 lung, with NCI-H460 lung and in the experiment on RPMI-8226 leukemia was above 100 µM throughout. The TGI in the experiment with SW-620 colon and with SN12C renal was above 100 µM throughout.

For `COC(=O)[C@@H](C)[C@H]1CC[C@@](C)(CCC2=C(C)CC3C=C(C)CCC3C2(C)C)OO1` (some centres undefined), the TGI in the experiment on IGROV1 ovarian was found to be 3.06 µM; in the experiment on NCI-H522 lung, 0.331 µM; in the experiment with NCI-H226 lung it was 4.13 µM; in the experiment on NCI-H460 lung, 3.57 µM; in the experiment with RPMI-8226 leukemia, 5.98 µM; in the experiment with SW-620 colon it was 1.01 µM. The TGI with SN12C renal is 2.36 µM.

Consider `Cc1nc(/C=C2\C(=O)C=Cc3ccccc32)c(O)o1`, for which the TGI in the experiment with IGROV1 ovarian, in the experiment on NCI-H522 lung, in the experiment with HOP-92 NSCLC, with NCI-H460 lung, with RPMI-8226 leukemia and with SW-620 colon was above 100 µM each time. Moreover, the TGI in the experiment on SN12C renal was above 100 µM.

`CCOC(=O)C1=C(C)N(NC(N)=O)C2(N)N(NC(N)=O)C(C)=C(C(=O)OCC)C12C(=O)OCC` (centres undefined): the TGI in the experiment with IGROV1 ovarian, in the experiment with NCI-H522 lung, in the experiment on NCI-H226 lung, in the experiment on NCI-H460 lung, in the experiment with RPMI-8226 leukemia and in the experiment on SW-620 colon was above 100 µM each time. The compound further displayed a TGI in the experiment with SN12C renal above 100 µM.

Consider `C=CCN1/C(=C2\SC(=S)N(c3ccc(C)cc3)C2=O)Sc2c1ncn(C)c2=O`, for which the TGI in the experiment with IGROV1 ovarian, with NCI-H522 lung, in the experiment on HOP-92 NSCLC, in the experiment on NCI-H226 lung, in the experiment with NCI-H460 lung and in the experiment on RPMI-8226 leukemia was above 100 µM in each case. In addition, the TGI in the experiment on SW-620 colon and in the experiment on SN12C renal was above 100 µM in each case.

On to `COC1CCC(OC)C(C2(C3CC(OC)CCC3OC)OC(=O)c3ccccc32)C1` (centres undefined), for which the concentration for total growth inhibition (TGI) with IGROV1 ovarian was above 100 µM; in the experiment on NCI-H522 lung, 52.1 µM; in the experiment on HOP-92 NSCLC it was above 100 µM; in the experiment on NCI-H226 lung it was above 100 µM; in the experiment with NCI-H460 lung it was above 100 µM; with RPMI-8226 leukemia it was above 100 µM. For the same compound, the TGI in the experiment on SW-620 colon and in the experiment with SN12C renal was above 100 µM throughout.

As for `COc1ccc2c(c1)NC1(O)c3ccccc3C(=O)C21O` (centres undefined), the TGI in the experiment on IGROV1 ovarian, in the experiment with NCI-H522 lung, in the experiment with HOP-92 NSCLC, with NCI-H226 lung, in the experiment on NCI-H460 lung and in the experiment with RPMI-8226 leukemia was above 100 µM in each case. In addition, the TGI with SW-620 colon and in the experiment on SN12C renal was above 100 µM throughout.

As to `CC(C(=O)c1ccccc1)C1(O)C(=O)Nc2ccc(Cl)cc21` (centres undefined), the TGI in the experiment with IGROV1 ovarian, in the experiment with HOP-92 NSCLC, in the experiment with NCI-H226 lung, in the experiment with NCI-H460 lung, in the experiment on RPMI-8226 leukemia and in the experiment with SW-620 colon was above 100 µM in each case. In the experiment with SN12C renal, this compound displayed a TGI above 100 µM.

As for `Cc1ccc(S(=O)(=O)OC(COC(=O)c2ccccc2)C(OS(=O)(=O)c2ccc(C)cc2)C(OS(=O)(=O)c2ccc(C)cc2)C(COC(=O)c2ccccc2)OS(=O)(=O)c2ccc(C)cc2)cc1` (centres undefined), the TGI is above 10 µM in the experiment on IGROV1 ovarian; above 100 µM in the experiment with NCI-H522 lung; above 100 µM in the experiment on HOP-92 NSCLC; above 100 µM with NCI-H460 lung; above 100 µM in the experiment with RPMI-8226 leukemia; above 100 µM with SW-620 colon. The compound further had a TGI with SN12C renal above 100 µM.

On to `C/C(CC(=O)Nc1ccccc1C)=N/NS(=O)(=O)c1ccc(C)cc1`, for which the TGI with IGROV1 ovarian, in the experiment with NCI-H522 lung, with HOP-92 NSCLC, in the experiment with NCI-H226 lung, in the experiment with NCI-H460 lung and in the experiment on RPMI-8226 leukemia was above 100 µM in each case. For the same compound, the TGI in the experiment with SW-620 colon was above 100 µM.

In the case of `COC(=O)/C(C#N)=C(\N)C(Cl)(Cl)Cl`, the TGI came out at 4.14 µM with NCI-H522 lung; 9.85 µM in the experiment on HOP-92 NSCLC; 16.1 µM with NCI-H460 lung; 6.75 µM in the experiment on RPMI-8226 leukemia; 1.84 µM in the experiment with SW-620 colon; 12.7 µM in the experiment on SN12C renal.

With `CCCCc1c2cnccc2c(CCCC)c2c1[nH]c1ccccc12`, the TGI in the experiment with IGROV1 ovarian was 30.3 µM; in the experiment with NCI-H522 lung it was 58.2 µM; with HOP-92 NSCLC, 47.7 µM; with NCI-H226 lung it was 34 µM; in the experiment on NCI-H460 lung, above 100 µM; in the experiment with RPMI-8226 leukemia, 17.6 µM. Moreover, the figures for the TGI with SW-620 colon and in the experiment with SN12C renal were above 100 µM and 62.4 µM, respectively.

For `OC12c3ccccc3C1CCCCCCCCCC21OCCO1` (centres undefined), the TGI in the experiment on IGROV1 ovarian, in the experiment on NCI-H522 lung, with NCI-H226 lung, in the experiment with NCI-H460 lung, with RPMI-8226 leukemia and in the experiment on SW-620 colon was above 100 µM in each case. In addition, the TGI with SN12C renal is above 100 µM.

Take `C=CCC1(C(=O)OC(C)(C)C)C(OC)=C(C(=O)OC(C)(C)C)C2C1C(C(=O)OC(C)(C)C)=C(OC)C2(CC=C)C(=O)OC(C)(C)C` (centres undefined): the TGI in the experiment on IGROV1 ovarian, in the experiment on NCI-H522 lung, in the experiment on HOP-92 NSCLC, with NCI-H226 lung, in the experiment with RPMI-8226 leukemia and in the experiment on SW-620 colon was above 100 µM throughout. In addition, in the experiment with SN12C renal, the TGI is above 100 µM.

A word on the TGI: it is the concentration giving total growth inhibition.
